Assay results as given in patent US7008621B2, “Regulation of apoptosis in aquatic organisms by aquabirnavirus” (Academia Sinica, priority 1999, dated 2006).
“Also recorded” adds a separate entry of the source.

Tests used:
[1] = test system: CHSE-214-EGFP cells infected with IPNV; assay: EGFP release (membrane integrity) Western blot after drug pre-treatment and IPNV infection; format: cell-based, Chinook salmon; settings: 16 h
Experimental: Protein synthesis inhibitors, serine proteinase inhibitors, tyrosine kinase inhibitors, and a cation chelator were added to CHSE-214-EGFP cells before infection with IPNV (MOI of 1). After infection, the cells were incubated for 16 h. Samples were electrophoresed on a 12% SDS-polyacrylamide gel and electroblotted to a nitrocellulose membrane. Antigen-specific signals were detected with either rabbit anti-GFP serum (A and C) or a mouse IgG monoclonal antibody directed against actin (B). The chemiluminescent signal was imaged on Kodak XAR-5 film by using a 5-min (A), a 1-min (B), or a 30-min (C) exposure. (A) Lanes: 1, 0.2 μg of recombinant wild-type GFP as a positive control; 2, normal CHSE-214-EGFP cell lysate; 3, 30 μg of cell lysate protein corresponding to IPNV infection; 4–9, 30 μg of cell lysate protein corresponding to pre-treatment with cycloheximide (CHX) (100 μg/ml), aprotinin (400 μg/ml), leupeptin (400 μg/ml), genistein (100 μg/ml), tyrphostin (100 μg/ml), and EDTA (2 mM) and then followed by virus infection for 16 h, respectively. (B) The nitrocellulose membrane from panel A was stripped and reprobed with an actin antibody. (C) Lanes: 1, 100 ng of wide-type GFP; 2, 30 μg of supernatant medium protein from normal CHSE-214 cells; 3, 30 μg of supernatant medium protein from IPNV-infected cells at 16 h p.i. 4–9, 30 μg of supernatant medium protein corresponding to treatment with cycloheximide (CHX) (100 μg/ml), aprotinin (400 μg/ml), leupeptin (400 μg/ml), genistein (100 μg/ml), tyrphostin (100 μg/ml), and EDTA (2 mM) and then followed by virus infection for 16 h, respectively.
About 10^5 cells per ml were seeded on a 60-mm-diameter petri dish and allowed to grow for more than 20 h. The cell monolayers were rinsed twice with phosphate-buffered saline (PBS), after which they were infected at an MOI of 1 and incubated for 0, 2, 4, 6, 8, 10, 12, and 24 h post infection (p.i.). Uninfected control cells were also incubated for the same periods of time. At the end of each incubation time, the culture medium was aspirated. The cells were washed with PBS and then lysed in 0.3 ml of lysis buffer (10 mM Tris base, 20% glycerol, 10 mM sodium dodecyl sulfate [SDS], 2% β-mercaptoethanol, pH 6.8).
Proteins were separated by SDS-polyacrylamide gel electrophoresis, electroblotted, and subjected to immunodetection as described by Kain et al. (1994), Bio Techniques, 17:982–987. Blots were incubated with a 1:7,500 dilution of an immunoglobulin fraction (Clontech) and a 1:1,500 dilution of a peroxidase-labeled goat anti-rabbit conjugate (Amersham). Chemilumine-scence detection was performed in accordance with the instructions provided with the Western Exposure Chemiluminescent Detection System (Amersham). Chemiluminescent signals were imaged by exposure of Kodak XAR-5 film (Eastman Kodak, Rochester, N.Y.). Stripping and reprobing of the Western blot and removal of the primary and secondary antibodies from blot were achieved by incubation in stripping buffer containing 62.5 mM Tris-HCl (pH 6.8), 3.0% (wt/vol) SDS, and 50 mM 1,4-dithiothreitol for 30 min at 55° C. with gentle shaking. The blot was washed three times in PBS containing 0.1% (vol/vol) Tween 20 for 10 min each time and reprobed with antibodies beginning at the membrane blocking step.
At the end of the incubation period, cells were harvested and samples were analyzed by Western blotting.

[2] = test system: CHSE-214 cells infected with IPNV E1-S; assay: DNA internucleosomal cleavage induced by IPNV, agarose gel electrophoresis; format: cell-based, Chinook salmon; settings: 16 h postinfection
Experimental: Lane 2: DNA isolated from uninfected CHSE-214 cells as a negative control. Lane 3: cells infected for 16 h with an MOI of 1 of E1-S, respectively, at 16 h postinfection. Lanes 6 and 7: CHSE-214 cells treated with aprotinin (400 μg/ml) in the absence and presence of infection by an MOI of 1 of E1-S, respectively, at 16 h postinfection. Lanes 8 and 9: CHSE-214 cells treated with leupeptin (400 μg/ml) in the absence and presence of infection by an MOI of 1 of E1-S, respectively, at 16 h postinfection. Lanes 10 and 11: CHSE-214 cells treated with genistein (100 μg/ml) in the absence and presence of infection by an MOI of 1 of E1-S, respectively; at 16 h postinfection. Lanes 12 and 13: CHSE-214 cells treated with tyrphostin (100 μg/ml) in the absence and presence of infection by an MOI of 1 of E1-S, respectively, at 16 h postinfection. Lanes 14 and 15: CHSE-214 cells treated with 2 mM EDTA in the absence and presence of infection by an MOI of 1 of E1-S, respectively, at 16 h postinfection. All samples were electrophoresed through 1.2% agarose gels and visualized by ethidium bromide staining. Lane 1 contains the molecular weight marekers used in the gel (1 kb DNA ladder from MBI for sizing linear fragments ranging in size from 500 bp to […]).
About 10^5 cells per ml were seeded on a 60-mm-diameter petri dish and allowed to grow for more than 20 h. The cell monolayers received virus at an MOI of 1.0 and were incubated for 8 h. Uninfected control cells were also incubated for 8 h. The two groups were used for DNA fragmentation studies. At the end of incubation, the cells were lysed with lysis buffer (10 mM Tris-HCl, 0.25% Triton X-100, 1 mM EDTA, pH 7.4). After treatment with phenol-chloroform-isoamyl alcohol (25:24:1), the DNA was precipitated in the presence of 0.3 M sodium acetate and cold absolute ethanol at −70° C. for 2 h and then resuspended in 10 mM Tris-HCl (pH 7.4)−1 mM EDTA. […]

[3] = test system: IPNV E1-S; assay: Blocking of viral replication / viral protein expression, Western blot with anti-E1-S virion antiserum; format: cell-based, infectious pancreatic necrosis virus; settings: 16 h
Experimental: (§1) After adding protein synthesis inhibitor, serine proteinase inhibitors, tyrosine kinase inhibitors and a cation chelator, CHSE-214-EGFP cells were infected with IPNV (MOI of 1) then incubated for 16 h at 18° C. Samples were electrophoresed on a 12% SDS-polyacrylamide gel and electroblotted to a nitrocellulose membrane. Antigen-specific signals were detected with a rabbit anti-EI-S virion antiserum (A) or with a rabbit anti-human Mcl-1 antiserum (Pharmingen) (B) and with a mouse monoclonal IgG antibody directed against mouse actin (Chemicon) (C). (A) Lane 1, normal CHSE-214 cell lysate; lane 2, IPNV infected cell lysate at 16 h postinfection; lanes 3–8, 30 μg of cell lysate, to which was added cycloheximide (100 μg/ml), aprotinin (400 μg/ml), leupeptin (400 μg/ml), genistein (100 μg/ml), tyrphostin (100 μg/ml) and EDTA (2 mM), followed by IPNV infection and incubated cells for 16 h, respectively. (B,C) The nitrocellulose membrane from (A) was stripped and reprobed with Mcl-1 or an actin antibody, respectively.
(§2) About 10^5 cells/ml were seeded on a 60-mm. petri dish for growth for more than 20 h. Monolayers were rinsed twice with phosphate-buffered saline (PBS). Control cells or cells that received virus at a MOI of 1 were incubated for 0, 2, 4, 6, 8, 10 and 24 h. At the end of each incubation time the culture medium was aspirated. The cells were washed with PBS and then lysed in 0.3 nil lysis buffer [10 mM Tris base, 20% glycerol, 10 mM sodium dodecyl sulfate (SDS), 2% β-mercaptoethanol (P-ME), pH 6.8].
(§3) Proteins were separated by SDS-polyacrylamide gel electrophoresis (Laemmli, 1970), electroblotted, and subjected to immunodetection as described by Kain et al. (1994). Blots were incubated with a 1:1500 dilution of anti-human Mcl-1 polyclonal antibodies (Pharmingen) or a 1:7500 dilution of a peroxidase-labeled goat anti-rabbit conjugate (Amershan). Chemi-luminescent detection was performed according to the instructions provided with the Western Exposure Chemiluminescent Dectection System (Amershan). Chemiluminescent signals were imaged by exposure to Kodak XAR-5 film (Eastman Kodak, Rochester, N.Y., USA). Primary (Mcl-1) and secondary antibodies (peroxidase-labeled goat anti-rabbit conjugate) were stripped from blots by incubation in stripping buffer containing 62.5 mM Tris-HCI (pH 6.8), 3.0% (w/v) SDS and 50 mM 1,4-dithiothreitol for 30 min at 55° C. with gentle shaking. The blots were then washed four times for 10 min each time in PBS containing 0.1% (v/v) Tween 20 and reprobed with mouse actin monoclonal antibody (1/1500, Chemicon) and a 1:7500 dilution of a peroxidase-labeled sheep anti-mouse conjugate (Amersham).
(§4) At the end of the incubation period, cells were harvested and the samples were analyzed by Western blot method.

[4] = test system: Mcl-1 protein; assay: Prevention of down-regulation of Mcl-1 protein expression by IPNV, Western blot; format: cell-based, Chinook salmon; settings: 16 h
Experimental: as §1, §2, §3, §4

[5] = 400 μg/ml added before IPNV infection (MOI 1)
[6] = 400 μg/ml before IPNV infection

C[C@@H]1C[C@@H]([C@H](O)CC2CC(=O)NC(=O)C2)C(=O)[C@@H](C)C1 [CHX, cycloheximide]
prevention of EGFP release ([1]; 10 μg/ml added before IPNV infection (MOI 1)): completely prevented EGFP release
induction of DNA internucleosomal cleavage by IPNV ([2]; 10 μg/ml before IPNV infection (MOI 1)): blocked the induction of DNA internucleosomal cleavage
viral replication / viral protein expression ([3]; 10 μg/ml added to CHSE-214 cells before IPNV infection): blocked viral protein expression
viral replication / viral protein expression ([3]; 10 μg/ml added to CHSE-214 cells before IPNV infection, listed as cyclohexamide): viral replication was prevented
prevention of down-regulation of Mcl-1 protein expression ([4]; 10 μg/ml before IPNV infection): helped to maintain Mcl-1 expression level
prevention of down-regulation of Mcl-1 protein expression ([4]; 10 μg/ml before IPNV infection, listed as cyclohexamide): partially prevented down-regulation of Mcl-1 protein expression

O=C(O)CN(CCN(CC(=O)O)CC(=O)O)CC(=O)O [EDTA]
prevention of EGFP release ([1]; 2 mM added before IPNV infection (MOI 1)): completely prevented EGFP release
induction of DNA internucleosomal cleavage by IPNV ([2]; 2 mM before IPNV infection (MOI 1)): minor internucleosomal cleavage; also recorded: blocked the induction of DNA internucleosomal cleavage
viral replication / viral protein expression ([3]; 2 mM added to CHSE-214 cells before IPNV infection): viral replication was prevented; also recorded: blocked viral protein expression
prevention of down-regulation of Mcl-1 protein expression ([4]; 2 mM before IPNV infection): partially prevented down-regulation of Mcl-1 protein expression; also recorded: helped to maintain Mcl-1 expression level

O=c1c(-c2ccc(O)cc2)coc2cc(O)cc(O)c12 [genistein]
prevention of EGFP release ([1]; 100 μg/ml added before IPNV infection (MOI 1)): partially prevented EGFP release
induction of DNA internucleosomal cleavage by IPNV ([2]; 100 μg/ml before IPNV infection (MOI 1)): blocked the induction of DNA internucleosomal cleavage
viral replication / viral protein expression ([3]; 100 μg/ml added to CHSE-214 cells before IPNV infection): viral replication was prevented; also recorded: blocked viral protein expression
prevention of down-regulation of Mcl-1 protein expression ([4]; 100 μg/ml before IPNV infection): partially prevented down-regulation of Mcl-1 protein expression; also recorded: helped to maintain Mcl-1 expression level

CC(=O)N[C@@H](CC(C)C)C(=O)N[C@@H](CC(C)C)C(=O)N[C@H](C=O)CCCNC(=N)N [leupeptin]
prevention of EGFP release [1, 5]: did not prevent EGFP release
prevention of down-regulation of Mcl-1 protein expression [4, 6]: could not

aprotinin
prevention of EGFP release [1, 5]: did not prevent EGFP release
prevention of down-regulation of Mcl-1 protein expression [4, 6]: could not
